Measured values from patent publication US8563743B2, “Benzofuranone compound and pharmaceutical composition containing same” (Fuso Pharmaceutical Industries, Ltd., priority 2010, dated 2013).
Counter-ions that a name gives are not always drawn.

What was measured:
[1] = tested on: human breast cancer cell (MCF-7); assay: cells; conditions: for TGI MCF-7: 72 hours culture with compound, maximum concentration 10 μM; for GI50 / CC50: Homo sapiens, MCF7, 72 h; for GI50: read-out: GI50 MCF-7; for CC50: read-out: LC50 MCF-7
Protocol: (§1) As positive control substances, 5-fluorouracil (5-FU, Sigma) and gemcitabine hydrochloride (Gemzar, GEM, Eli Lilly Japan K.K.), were tested. The experiment was carried out in accordance with the method carried out by the Commission of Screening for Carcinostatic Agents of the Ministry of Education, Culture, Sports, Science and Technology. With respect to each of experiment groups, the experiment was repeated nine times and an average value was determined. Specifically, each type of cultured cells were seeded into a 96-well microplate at a density of 1×10^4 cells per well (5.0×10^4 cells/mL, 200 μL), the cells were cultured under 5% CO2 at 37° C. for 24 hours, the culture medium was replaced by a culture medium containing the compound (180 μL, the maximum dose of each of the compound was 10 μM, and the final concentration of dimethylsulfoxide (DMSO, Sigma) was adjusted to 0.25%), and the culture was further continued under the same conditions for 72 hours. In this experiment, Dulbecco's modified Eagle's medium (D-MEM, Wako Pure Chemical Industries, Ltd.) was used for the culture of MIA PaCa-2, and Eagle's minimal essential medium (E-MEM, Wako Pure Chemical Industries, Ltd.) was used for the culture of MCF-7.
(§2) After the completion of the culture, alamar blue (20 μL) (Iwaki Glass Co., Ltd.) was added to the culture medium, the resultant mixture was agitated, the culture was then carried out for 3 hours, and fluorescence values were determined on a fluorescence plate reader (Spectra Max M5 (Nihon Molecular Devices Corporation)) at an excitation wavelength of 530 nm and a fluorescence wavelength of 590 nm.
(§3) The fluorescence values immediately before the action of each of the compounds were determined by replacing the culture medium, adding alamar blue (20 μL) immediately after the replacement of the culture medium, agitating the resultant mixture, carrying out the culture for 3 hours, and measuring the fluorescence values on a fluorescence plate reader.
(§4) On the basis of the measurement values thus obtained, Tz (the state of the cultured cells immediately before the action of the compound), GI50 (the concentration of the compound required for inhibiting the proliferation of the cultured cells by 50% relative to the proliferation of the cultured cells in the presence of […]), TGI (the concentration of the compound required for inhibiting the proliferation of the cells in such a manner that the number of the cells became the same as Tz), LC50 (the concentration of the compound required for decreasing the number of the cells to 50% of Tz) and the proliferation rate (the rate of the proliferation of the cultured cells from the time pint of the action of the compound until the time point of the measurement of fluorescence) were determined.
(§5) Due to the problem of the solubility of each of the compounds, the maximum concentration was set at 10 μM.

[2] = tested on: human pancreatic cancer cell (MIA PaCa-2); assay: cells; conditions: for TGI MIA PaCa-2: 72 hours culture with compound, maximum concentration 10 μM; for GI50: read-out: GI50 MIA PaCa-2; for proliferation rate: MIA PaCa-2, at a concentration of 10 μM
Protocol: as §1, §2, §3, §4, §5

Compound	cytotoxic or cell proliferation inhibition activity [1]	TGI MCF-7 [1] [µM]	GI50 [1] [µM]	CC50 [1] [µM]	cytotoxic or cell proliferation inhibition activity [2]	TGI MIA PaCa-2 [2] [µM]	GI50 ([2]; Homo sapiens, MIA PaCa-2, 72 h) [µM]	concentration at which a cytotoxic or cell proliferation inhibition activity was exhibited [1] [µM]	proliferation rate ([1]; MCF-7, at a concentration of 10 μM (the maximum dose)) [%]	concentration at which a cytotoxic or cell proliferation inhibition activity was exhibited [2] [µM]	CC50 ([2]; Homo sapiens, MIA PaCa-2, 72 h, read-out: LC50 MIA PaCa-2) [µM]	proliferation rate [2] [%]	concentration from which no increase in the activity was observed ([1]; MCF-7) [µM]	proliferation rate ([1]; MCF-7, at a concentration of 10 ηM) [%]	concentration from which no increase in the activity was observed ([2]; MIA PaCa-2) [µM]
O=c1[nH]cc(F)c(=O)[nH]1 [5-FU, 5-fluorouracil]	did not exhibit either of these activities	>10	> 10	> 10	did not exhibit either of these activities	>10	> 10								
COCCNS(=O)(=O)c1ccc(OC)c2oc(-c3csc(NC(=O)CCl)n3)cc12 [MU-1497, 2-chloro-N-{4-[7-methoxy-4-(2-methoxyethylsulfamoyl)-benzofuran-2-yl]-thiazol-2-yl}-acetamide]		4.70	3.82	5.81		6.15	4.22	≥ 5.0	−99.71	≥ 2.5	8.07	−95.39			
Nc1ccn([C@@H]2O[C@H](CO)[C@@H](O)C2(F)F)c(=O)n1 [GEM, gemcitabine hydrochloride]	did not exhibit either of these activities	>10	> 10	> 10	exhibited a cytotoxic or cell proliferation inhibition activity	>10	0.035					26.47	≥ 0.05	59.52	≥ 0.05
